# Experimental data taken from article PMC8414802, “Hair Cell Generation in Cochlear Culture Models Mediated by Novel γ-Secretase Inhibitors” (Frontiers in Cell and Developmental Biology, 2021).
# System: hair cell genes (Atoh1, Pou4f3, Myo7a) and supporting cell gene (Hes5) in cochlear organoids
# Experiment: Cochlear organoids from Atoh1-nGFP mice, gene expression by RT-PCR
# Assay type: cell-based
# Conditions: mouse organoids, 5 μM, end of differentiation, vs untreated
# Procedure: On day 0, the cochlear sensory epithelium was dissected and the OC was separated from the modiolus and stria vascularis, as described above, from either Wistar rat pups (P2), Lgr5-GFP mice (P0–P2) or Atoh1-GFP mice (P0–P2). To separate the sensory epithelial layer from underlying mesenchyme and neurons, the OC was placed in a 100 μl drop of Matrisperse Cell Recovery Solution (Corning) for 1 h at RT, then delaminated with the aid of forceps. Gentle enzymatic dissociation of hair cells and supporting cells followed with 100 μl drop of TrypLE (Gibco), 20 min at 37°C, then mechanical trituration in DMEM/F12. The cell suspension was centrifuged for 5 min at 500 g at 4°C and resuspended in DMEM/F12 medium supplemented with B27 and N2 (Invitrogen), EGF (50 ng/ml), bFGF (50 ng/ml), IGF (25 ng/ml), CHIR99021 (GSK-3β inhibitor, 3 μM, Merck), valproic acid (HDAC inhibitor, 1 mM, Sigma), 2-phospho-L-ascorbic acid (280 μM, Stemcell Technologies) and 0.01% ampicillin (Sigma). Cells were plated at 2,000 cells per well on 96 wells plate (Corning Costar; ultra-low attachment, round-bottom) to allow aggregation at 37°C. On day 1, Matrigel (GF-depleted, Corning; 2% stock) was added to a final concentration of 0.18 mg/ml. On day 3, cells were transferred to 24 wells plate (ultra-low attachment; Corning Costar), pooling the organoid aggregates from 4 to 5 wells (96 well-plate) to one 24-well, culturing at 37°C and exchanging half medium and Matrigel every other day, On day 10, organoids were differentiated by replacing medium with DMEM/F12 supplemented with B27, N2, CHIR99021 (3 μM), and Notch inhibitors CPD3 (5 μM) or LY411575 (5 μM), and culture was continued as above for another 10 days.
# Cells or tissue were lysed using RLT Lysis Buffer (Qiagen) and high purity RNA was prepared on the MagNA Pure instrument using MagNA Pure 96 Cellular RNA LV Kit (Roche). […] Normalized to Tbp, relative gene expression fold-change was quantified and compared between experimental and control conditions by ΔΔCt calculation. […]
smiles,measurement,value
COc1ccc2c(c1)N1CCC(C)(C)C1=CC(=O)[C@H]2NC(=O)[C@H](C)NC(=O)CCC(F)(F)F [CPD3],Atoh1 expression,8.07 ± 5.6 fold
same,Myo7a expression,9.9 ± 10.5 fold
same,Pou4f3 expression,12.65 ± 11.07 fold
